Measured values from US11974574B2, “Compositions and related methods for modulating endosymbionts” (Flagship Pioneering Innovations V, Inc., priority 2017, dated 2024).
{Cy3} = Cy3 dye attached by click chemistry

What was measured:
[1] = test system: Myzus persicae; test: Cy3-PNA in artificial diet, aphid survival (Example 13); assay type: in vivo; details: Myzus persicae second and third instar, final 0.5 to 10 mg/L Cy3-PNA, fed 24 hr, mortality checked every 24 h for 4 days
Procedure: Therapeutic Design: Cy3-PNA Solutions are Formulated with 0, 0.5, 1, 5 or 10 mg/L of Cy3-PNA from Example 11 in 10 mL of 0.5% Sucrose and Essential Amino Acids.
(§1) To prepare for the treatment, aphids are grown in a lab environment and medium. In a climate-controlled room (16 h light photoperiod; 60±5% RH; 20±2° C.), plants are grown in a mixture of vermiculite and perlite and are infested with aphids. To limit maternal effects or health differences between plants, 5-10 adults from different plants are distributed among 10 two-week-old plants, and allowed to multiply to high density for 5-7 days. For experiments, second and third instar aphids are collected from healthy plants and divided into treatments so that each treatment receives approximately the same number of individuals from each of the collection plants.
Wells of a 96-well plate are filled with 200 μl of artificial aphid diet (Febvay et al., Canadian Journal of Zoology 66(11):2449-2453, 1988) and the plate is covered with parafilm to make a feeding sachet. Artificial diet is either mixed with the solution of sterile water with 0.5% sucrose and essential amino acids only as a negative control, or mixed with Cy3-PNA solutions. Cy3-PNA solutions are mixed with artificial diet to obtain final concentrations between 0.5 to 10 mg/L. […]

[2] = test system: its target bacterial strains; details: against its target bacterial strains; cited from earlier work
[3] = test system: Myzus persicae; test: Bcr1 dsRNA in artificial diet, aphid survival (Example 9); assay type: in vivo; details: Myzus persicae second and third instar, final 0.5 to 5 μg/ml dsRNA, fed 24 hr, mortality checked every 24 h for 4 days
Procedure: (§2) Aphids are one of the most important agricultural insect pests. They cause direct feeding damage to crops and serve as vectors of plant viruses. In addition, aphid honeydew promotes the growth of sooty mold and attracts nuisance ants. The use of chemical treatments, unfortunately still widespread, leads to the selection of resistant individuals whose eradication becomes increasingly difficult. Therapeutic design: dsRNA solutions are formulated with 0 (negative control), 0.5, 1, or 5 μg/mL of Bcr1 dsRNA from Example 7 in 10 mL of TE buffer with 0.5% sucrose and essential amino acids.
as §1, with “(16 hr” for “(16 h”, “plants. […]” for “plants.”

[4] = test system: Rhopalosiphum maidis; test: Bcr1 dsRNA in artificial diet, aphid survival (Example 3); assay type: in vivo; details: Rhopalosiphum maidis second and third instar, final 0.5 to 5 μg/ml dsRNA, fed 24 hr, mortality checked every 24 h for 4 days
Procedure: as §2, with “μg/ml” for “μg/mL”, “2” for “7”
as §1, with “C.), fava bean” for “C.),”, “plants. […]” for “plants.”

## Cy3-Gaatgcagctgc (antisense GAATGCAGCTGC; all peptide nucleic acid (PNA), 5' {Cy3}; Cy3 attached via DBCO-azide click chemistry) [Cy3-PNA, antisense PNA against bacteriocyte target gene Bcr1 joined to Cy3 dye through click chemistry]
[1]
  survival rate of aphids compared to the control treated aphids: decreased

## ITSISLCTPGCKTGALMGCNMKTATCHCSIHVSK [nisin]
[2]
  concentration showing antimicrobial activity: single-digit nanomolar concentration

B1: Bcr1 dsRNA: dsRNA hairpin targeting the Bcr1 gene (ACYPI32128), SEQ ID NO: 93 (nucleic acid, listed as Acyrthosiphon pisum)
chain: AUGAAACUGCUGCAUGGCUUUCUGAUUAUUAUGCUGACCAUGCAUCUGAGCAUUCAGUAUGCGUAUGGCGGCCCGUUUCUGACCAAAUAUCUGUGCGAUCGCGUGUGCCAUAAACUGUGCGGCGAUGAAUUUGUGUGCAGCUGCAUUCAGUAUAAAAGCCUGAAAGGCCUGUGGUUUCCGCAUUGCCCGACCGGCAAAGCGAGCGUGGUGCUGCAUAACUUUCUGACCAGCCCGUUUUUUUUUUCGGGCUGGUCAGAAAGUUAUGCAGCACCACGCUCGCUUUGCCGGUCGGGCAAUGCGGAAACCACAGGCCUUUCAGGCUUUUAUACUGAAUGCAGCUGCACACAAAUUCAUCGCCGCACAGUUUAUGGCACACGCGAUCGCACAGAUAUUUGGUCAGAAACGGGCCGCCAUACGCAUACUGAAUGCUCAGAUGCAUGGUCAGCAUAAUAAUCAGAAAGCCAUGCAGCAGUUUCAU
[3]
  survival rate of aphids compared to the control treated aphids: decreased
[4]
  survival rate of aphids compared to the control treated aphids: decreased
